In paper PMC10111022, “Comparison of pharmacological inhibitors of lysine-specific demethylase 1 in glioblastoma stem cells reveals inhibitor-specific efficacy profiles” (Frontiers in Neurology, 2023):

Tests used:
NK or T-cells = assay: Flow cytometry of peripheral blood NK and T-cell subsets at day 50; assay type: in vivo, athymic nude mice; settings: peripheral blood mononuclear cells
Protocol: Once confirmation of intracranial tumor engraftment at 7 days post-engraftment, the mice were equally randomized into groups to receive either GSK-LSD1 or the vehicle control. The mice received GSK-LSD1 1 mg/kg diluted in DMSO and PBS (5 and 95%, respectively) via intraperitoneal injection (200 μL/mouse) while the control mice received the untreated vehicle in parallel. In accordance with the approved IACUC protocol (No: 638-RN03) at MD Anderson Cancer Center, treatment continued until the mice succumbed to tumor burden and were found in a moribund condition as determined by neurological impairment (hydrocephalus, seizures, inactivity, and/or ataxia) or morbidity (hunched posture or weight loss). At this time mice were euthanized by both carbon dioxide exposure and cervical dislocation. Flow cytometric characterization of immune cell subsets was carried out in blood samples obtained from mice (four control mice and six GSK-LSD1 mice) in each group at day 50 via cardiac puncture and the sample was processed using Ficoll (GE Healthcare; Chicago, IL) centrifugation to collect the peripheral blood mononuclear cells (PBMCs). Next, PBMCs were stained with the Ghost Dye Violet (Tonbo; San Diego, CA) and then incubated with antibodies at 4°C for 25 min before analysis. […]

MDA-GSC7-2 = assay: qPCR of resistance-related genes, MDA-GSC7-2; assay type: cell-based, Human; settings: MDA-GSC7-2 (sensitive)
Protocol: Total RNA was extracted using RNeasy Plus Mini Kit (Qiagen; Hilden, Germany) following the manufacturer’s protocol. cDNA was synthesized with the iScript cDNA synthesis kit (Bio-Rad; Hercules, CA), qPCR was performed using Forget-Me-Not EvaGreen qPCR kit (Biotium; Fremont, CA), and samples were analyzed with the LightCycler96 (Roche; Basel, Switzerland). Cq values were normalized to PPIA and reported as relative fold change from untreated control.

MDA-GSC 8–11 = assay: Cell viability dose response (IC50), MDA-GSC 8–11; assay type: cell-based; settings: Homo sapiens, mean of three independent experiments
Protocol: MDA-GSCs were plated at 50,000 cells/well into 12-well plates at and allowed to grow for 5 days until neurospheres were formed. The cells were then treated with either TCP, GSK-LSD1, or RN-1 at various concentrations for 5 days. Next, the cells were collected and neurospheres were dissociated with Accutase (BioLegend; San Diego, CA). Cell viability was determined using a trypan dye exclusion assay and read with the Vi-Cell XR Cell Viability Analyzer (Beckman Coulter; Brea, CA). NHAs were plated at 50,000 cells/well into 12-well plates and allowed to adhere overnight. The following day, NHAs were treated with the LSD1 inhibitors. After 5 days, the cells were detached using TrypLE and assessed with the trypan blue dye exclusion assay.
The alamarBlue cell viability (Bio-Rad; Hercules, CA) was performed on the MDA-GSCs according to the manufacturer’s protocol. The cells were plated at 5,000 cell/well into a 96-well plate and allowed to grow for 5 days. After 5 days, the alamarBlue reagent was added and fluorescence was measured with the Synergy 2 (BioTek Instruments; Winooski, VT) plate reader according to the manufacturer’s protocol.

What does the source list for `c1ccc([C@@H]2C[C@H]2NC2CCNCC2)cc1` [GSK-LSD1]?
cytotoxic effects on NK or T-cells (NK or T-cells): does not have cytotoxic effects; expression of resistance-related genes (FTH1, RAB39B, HKDC1, FAM213A) (MDA-GSC7-2): inappreciable effects; IC50 (MDA-GSC 8–11): 726 µM
